Test results reported in US8961986B2, “Peptide composition” (Apitope Technology (Bristol) Limited, priority 2000, dated 2015).
Entries after “also recorded” stand apart in the source; their conditions may differ.

Columns and labels:
[1] = system: fixed Mgar (HLA-DR2+ve) APC presenting to T cells from DR2:MBP 82-100 transgenic mouse; assay: Antigen-presentation assay using an APIPS (fixed APC) with T cells from DR2:MBP82-100 transgenic mouse; format: cell-based; details: live or p-formaldehyde-fixed Mgar cells, 72 h
Protocol: Presentation of peptides to T cells isolated from DR2:MBP82-100 transgenic mouse was essentially as described above except APC were plated at 5×10^5 cells per well, T cells were plated at 1×10^5 cells per well, and incubation was allowed to proceed for 72 h prior to the addition of [^3H]-thymidine.
(§1) For any given epitope, there may exist one or more apitopes, capable of being presented to APC without further processing. The presence of apitopes within two regions of MBP is investigated by incubating live or p-formaldehyde-fixed Mgar (HLA-DR2+ve) cells are incubated with overlapping peptides in serum from MBP regions 77-100 (FIG. 12) and 125-148 (FIG. 13) or in serum alone. T cells were added and after 72 h (FIG. 12) or after 48 h (FIG. 13) the T cell proliferative response was measured by ^3H-thymidine uptake. For MBP 77-100, the T cells are isolated from a DR2:MBP 82-100 transgenic mouse, whereas for MBP 130-144 the T cell clone MS17:A3 is used.

[2] = system: fixed Mgar (HLA-DR2+ve) APC presenting to T cell clones; assay: Antigen-presentation assay using an APIPS (fixed APC) with human T cell clones; format: cell-based; details: for apitope within MBP region 125-148: live or p-formaldehyde-fixed Mgar cells, T cell clone MS17:A3, 48 h; for presentation by fixed APC without further processing (apitope): fixed vs live APC, T cell clone proliferation
Protocol: Presentation of the peptides to T cell clones is measured by proliferation. APC are fixed in 0.5% paraformaldehyde and plated at 1×10^5 cells per well of a 96-well tissue culture plate. T cells clones are plated at 2×10^4 cells per well in the presence of varying concentrations of peptide. After incubation for 48 h at 37° C., proliferation is measured by [^3H] thymidine incorporation over 16-20 h. Results are compared with the ability of T cells to respond to the epitope presented by live APC.
In order to investigate whether various MBP peptides are apitopes, their capacity to be presented to T-cells by fixed APC is investigated. Live or […] Mgar (HLA-DR2+ve) cells are pre-pulsed with the peptide in serum, or serum alone for 3.5 hours. Excess peptide is then removed from cells and the appropriate T cell clone added. The T cell proliferative response is measured by ^3H-thymidine uptake.
as §1

HLA-DQ6 = assay: Antigen presentation assay, HLA-DQ6 transfected L-cells; format: cell-based, human
Text: MBP peptides 30-44, 130-144 and 139-153 were synthesized using L-amino acids and standard F-moc chemistry on an Abimed AMS 422 multiple peptide synthesiser.
L-cells transfected with either HLA-DQ6, HLA-DR2a or HLA-DR2b, or Mgar cells (EACC, Porton Down, UK) which express HLA-DQ, DP and DR were used as APCs.
T-cell clones MS 49:D3 and MS17:A2 were generated from MS patients and clone N5:19 was generated from a normal individual. All three clones were DR2 positive.
Antigen presenting cells were incubated with the various concentrations of peptide and the appropriate T-cells. Proliferation, and therefore activation, of the T-cells was measured by [^3H]-Thymidine incorporation, and expressed as the stimulation index (SI=corrected counts per minute (ccpm) culture containing peptide/ccpm culture without peptide).

[3] = system: MBP-specific T cell clones; assay: T cell clone (TCC) proliferation assay, fine mapping of MBP epitopes; format: cell-based, human; details: TCC from MS patients and healthy individuals; proliferative response
Protocol: MBP-specific T cell lines (TCL) are generated from 8 MS patients and 2 healthy control donors. PBMC from each subject are separated as described above and plated out at 1×10^6 cells/ml in 6-well plates in the presence of MBP (50 μg/ml); a portion of PBMC from each subject is regularly frozen and stored for subsequent restimulations. Seven days later the cells are fed with fresh medium containing 2% IL-2 (Lymphocult-HT; Biotest LTD., Birmingham, UK), and on day 12 of culture all cells are restimulated with antigen, IL-2 and irradiated (2500 Rad) autologous PBMC as a source of antigen presenting cells (APC), at a cell ratio of 1T cell:5 APC. Cells are expanded in IL-2 every 3-4 days, and on day 14 are restimulated with antigen, IL-2 and PBMC, as described above. On the day of the first restimulation cells are examined for specific proliferation to MBP. Briefly, 2×10^4 T cells and 1×10^5 irradiated autologous PBMC are cultured in triplicate, in 96-well round-bottom plates, in the presence of MBP. Cells are cultured for 2 days and pulsed with (^3H)-Thymidine at 0.4 μCi/well during the last 18 hours of the culture. Cells are then harvested as described above, and a TCL is considered to be MBP-specific with a δcpm>1000 and a SI>3.
Following 3 restimulation/expansion cycles TCL are cloned using PHA (Sigma, Poole, Dorset, UK)) in the presence of autologous irradiated PBMC as APC. T cells are plated under limiting dilution conditions at 0.1 cell/well, 0.3 cell/well and 1 cell/well and cultured in Terasaki plates (Nunc International, Costar) with 1×10^4 irradiated PBMC, 5 μg/ml PHA, and 2% IL-2. After 10-12 days, growth-positive wells are expanded onto 96-well round-bottom plates, using 1×10^5 irradiated PBMC, 5 μg/ml PHA and IL-2. Three days later wells are fed with fresh medium containing IL-2, and on day 7 the clones are expanded onto 48-well plates using 5×10^5 irradiated PBMC, PHA and IL-2; at this point clones are tested in proliferation assays for specific responses to MBP. MBP-specific clones are expanded a week later onto 24-well plates, using 1×10^6 irradiated PBMC with PHA or Dynabeads (Dynal, UK) and IL-2. The clones are maintained in 24-well plates using a 7-10 day restimulation/expansion cycle, essentially as described above. The ability of T cell clones (TCC) to recognize the panel of MBP peptides is tested by proliferation assays, as described above.
TCC are generated from 8 MS patients and 2 healthy individuals, and used to clarify the fine specificity of the peptide regions identified in the kinetic response assay. The specificity of each TCC is tested by its proliferative response to the panel of 15-mer peptides. Clone SD:A7 recognised region 1-24, and within this region this TCC responded to a.a. 5-19. Region 30-54 is recognised by 4 clones (MS49:D3, MS49:C8, MS49:A8, MS49:B6) and the epitope within this region is 30-44. […] Five clones (MS43:A7, MS41:B6, MS41:A2, MS41:C6, N5:8) recognize a.a. 83-99 which is contained in region 75-99. One patient produced TCC specific for a.a. 110-124 (MS60:A2, MS60:B3), contained within the 105-129 pool, and another TCC from the same patient is specific to 130-144 (MS60:E1), found within the 120-144 region. Five individuals produce clones which recognize epitopes within the region 135-159: MS60:F7, MS60:D1, MS59:F1 and N5:19 recognizes a.a. 140-154; MS57:A1 is specific to 140-149, and TCC MS17:A3 responds to sequence 130-144. […] Lastly, region 150-170 is recognized by 2 clones specific to a.a. 156-169.

[4] = system: draining lymph node cells; assay: Tolerance experiments with 89-101 and 87-96: lymph node cell recall proliferation; format: in vivo, Mice
Protocol: In order to test this possibility tolerance experiments are performed with the 89-101 and 87-96 peptides (FIGS. 15a and b).
Mice received 200 μg of peptide in PBS or PBS alone intraperitoneally on days −8, −6 and −4 prior to 100 μg of peptide in complete Freunds adjuvant on day 0. After 10 days, draining lymph node cells (6×10^5 per well) were cultured in X-Vivo 15 medium supplemented with 5×10^−5M 2-mercaptoethanol and […] L-glutamine with or without antigen for 72 hours. Cultures were pulsed for the final 16 hours with 0.5 μCi ^3H.thymidine and incorporation measured using a liquid scintillation counter. Results are expressed as means counts per minute for triplicate cultures.

[5] = system: MHC class I or II molecule; details: cited from earlier work

For DENPVVHFFKNIVTP [MBP 82-96], the “apitope within MBP region 77-100” value [1] was “shown to act as apitopes”.

In the case of DYKSAHKGFKGVDAQ [MBP 133-147], the “apitope within MBP region 125-148” value [2] is reported as “shown to act as apitopes”.

With ENPVVHFFKNIVTPR [MBP 83-97] the “apitope within MBP region 77-100” value [1] was “shown to act as apitopes”.

In the case of “H-Ala-Ser-Asp-Tyr-Lys-Ser-Ala-His-Lys-Gly-Phe-Lys-Gly-Val-Asp-NH2 (H-ASDYKSAHKGFKGVD-NH2) [MBP 131-145]”, the “apitope within MBP region 125-148” value [2] is reported as “shown to act as apitopes” and the HLA-DQ6 binding (HLA-DQ6) is reported as “HLA-DQ6 binding”.

In the case of “H-Pro-Arg-His-Arg-Asp-Thr-Gly-Ile-Leu-Asp-Ser-Ile-Gly-Arg-Phe-NH2 (H-PRHRDTGILDSIGRF-NH2) [MBP 30-44]”, the “presentation by fixed APC without further processing (apitope)” value [2] is reported as “shown to act as apitopes; also recorded: found to be apitopes; also recorded: can be presented by fixed APC without further processing”, the “T cell clones (TCC) recognising the peptide” value (from here on “T cell clones”) [3] is reported as 4 and the HLA-DQ6 binding (HLA-DQ6) is reported as “HLA-DQ6 binding”. For the same substance, the “proliferative response versus Mgar control cells” value (HLA-DQ6; T-cell clone MS 49:D3, highest peptide concentration) was 1.5 fold.

In the case of “MBP 5-19: MBP 15-mer peptide a.a. 5-19 (AGKRELNAEKASTNS; UniProt P02686 5-19, looked up, fragment)”, the “T cell clones” value [3] is reported as “responded”.

In the case of “MBP 60-74: MBP 15-mer peptide 60-74 (QDTAVTDSKRTADPK; UniProt P02686 60-74, looked up, fragment)”, the “T cell clones” value [3] is reported as “One”.

In the case of “MBP 87-96: MBP 10-mer peptide 87-96, contains the epitope 89-94 (SRPHLIRLFS; UniProt P02686 87-96, looked up, fragment)”, the “effect of peptide as tolerogen on recall responses after priming with 87-96” value ([4]; 200 μg i.p. days -8, -6, -4, priming 87-96 in CFA day 0, lymph node cells day 10) is reported as “suppressed recall responses to both 87-96 and 89-101” and the “in vitro recall response after priming with 87-96” value ([4]; PBS pre-treated mice, lymph node cells) is reported as “strong recall response”.

For “MBP 110-124: myelin basic protein peptide, residues 110-124 (RPSESDELQTIQEDS)”, the “presentation by fixed APC without further processing (apitope)” value [2] was “shown to act as apitopes; also recorded: found to be apitopes; also recorded: can be presented by fixed APC without further processing” and the “T cell clones” value [3] was “TCC specific”.

For “MBP 134-148: MBP peptide identified as apitope in WO 03/064464 (MASQKRPSQRHGSKY; UniProt P02686 134-148, looked up, fragment)”, the “identified as apitope in WO 03/064464” value [5] is given as “apitopes”.

For “MBP 135-149: MBP peptide identified as apitope in WO 03/064464 (ASQKRPSQRHGSKYL; UniProt P02686 135-149, looked up, fragment)”, the “identified as apitope in WO 03/064464” value [5] is given as “apitopes”.

In the case of “MBP 136-150: MBP peptide identified as apitope in WO 03/064464 (SQKRPSQRHGSKYLA; UniProt P02686 136-150, looked up, fragment)”, the “identified as apitope in WO 03/064464” value [5] is given as “apitopes”.

In the case of “MBP 137-151: MBP peptide identified as apitope in WO 03/064464 (QKRPSQRHGSKYLAT; UniProt P02686 137-151, looked up, fragment)”, the “identified as apitope in WO 03/064464” value [5] is listed as “apitopes”.

In the case of “MBP 138-152: MBP peptide identified as apitope in WO 03/064464 (KRPSQRHGSKYLATA; UniProt P02686 138-152, looked up, fragment)”, the “identified as apitope in WO 03/064464” value [5] is given as “apitopes”.

In the case of “MBP 140-149: MBP 10-mer peptide 140-149 (PSQRHGSKYL; UniProt P02686 140-149, looked up, fragment)”, the “T cell clones” value [3] is reported as “specific”.

In the case of “MBP 156-169: MBP a.a. 156-169 recognised by 2 clones; possibly the same as 156-170 (DHARHGFLPRHRDT; UniProt P02686 156-169, looked up, fragment)”, the “T cell clones” value [3] is reported as 2.

For “MBP 156-170: myelin basic protein peptide, residues 156-170; epitope but not apitope (DHARHGFLPRHRDTG)”, the “presentation by fixed APC without further processing (apitope)” value [2] was “an epitope but not an apitope; also recorded: requires further processing for presentation to T cells”.

For MPVVHFFKNIVTPRT [MBP 84-98], the “apitope within MBP region 77-100” value [1] was “shown to act as apitopes”.

For QDENPVVHFFKNIVT [MBP 81-95], the “apitope within MBP region 77-100” value [1] was “shown to act as apitopes”.

With RASDYKSAHKGFKGV [MBP 130-144] the “presentation by fixed APC without further processing (apitope)” value [2] was “shown to act as apitopes; also recorded: found to be apitopes; also recorded: can be presented by fixed APC without further processing” and the “T cell clones” value [3] was “responds”.

For SDYKSAHKGFKGVDA [MBP 132-146], the “apitope within MBP region 125-148” value [2] was “shown to act as apitopes”.

With TQDENPVVHFFKNIV [MBP 80-94] the “apitope within MBP region 77-100” value [1] was “shown to act as apitopes” and the “presentation by fixed APC without further processing (apitope)” value [2] was “found to be apitopes”.
